From PubChem BioAssay AID330 (DTP/NCI, 2004)
Values joined by “and” are separate entries in the source; they are usually repeats but may differ in a detail not shown here. Identical values can stand only once. Inconclusive results and toxic doses are left out.

System: P388 leukemia ip, CD2F1 mice, survival T/C
Experiment: NCI In Vivo Anticancer Drug Screen. Data for tumor model P388 Leukemia (intraperitoneal) in CD2F1 (CDF1) mice
Conditions: endpoint: median survival time, higher = longer survival
Procedure, shortened: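 Mice carrying the transplanted tumor received test compound or vehicle. Survival was recorded in each group, and the value is the treated-group measurement divided by that of the vehicle-treated control group.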

[1] = dose: 50.0 mg/kg/injection, schedule: Q01DX005 (ip), vehicle: saline with Tween-80
[2] = dose: 100.0 mg/kg/injection, schedule: Q01DX005 (ip), vehicle: saline with Tween-80
[3] = dose: 25.0 mg/kg/injection, schedule: Q01DX005 (ip), vehicle: saline with Tween-80
[4] = dose: 200.0 mg/kg/injection, schedule: Q01DX005 (ip), vehicle: saline with Tween-80

Compound: COc1cccc2c1C(=O)c1c(O)c3c(c(O)c1C2=O)C[C@@](O)(C(=O)CO)C[C@@H]3OC1CC(N)CC(C)O1 (some centres not stated)
- T/C (dose: 0.1 mg/kg/injection, schedule: Q01DX009 (ip), vehicle: water): 157 % of control
- T/C (dose: 0.2 mg/kg/injection, schedule: Q01DX009 (ip), vehicle: water): 154 % of control and 157 % of control
- T/C (dose: 0.32 mg/kg/injection, schedule: Q01DX009 (ip), vehicle: saline): 166 % of control
- T/C (dose: 0.39 mg/kg/injection, schedule: Q01DX009 (ip), vehicle: water): 173 % of control and 186 % of control
- T/C (dose: 0.54 mg/kg/injection, schedule: Q01DX009 (ip), vehicle: saline): 191 % of control
- T/C (dose: 0.78 mg/kg/injection, schedule: Q01DX009 (ip), vehicle: water): 185 % of control and 280 % of control
- T/C (dose: 0.9 mg/kg/injection, schedule: Q01DX009 (ip), vehicle: saline): 314 % of control
- T/C (dose: 1.5 mg/kg/injection, schedule: Q01DX009 (ip), vehicle: saline): 201 % of control
- T/C (dose: 1.56 mg/kg/injection, schedule: Q01DX009 (ip), vehicle: water): 157 % of control and 226 % of control and 89 % of control
- T/C (dose: 1.8 mg/kg/injection, schedule: Q04DX003 (ip), vehicle: saline): 200 % of control
- T/C (dose: 3.0 mg/kg/injection, schedule: Q04DX003 (ip), vehicle: saline): 154 % of control and 275 % of control
- T/C (dose: 3.13 mg/kg/injection, schedule: Q04DX003 (ip), vehicle: water): 158 % of control
- T/C (dose: 12.5 mg/kg/injection, schedule: Q04DX003 (ip), vehicle: water): 103 % of control

Compound: c1ccc2c(c1)CC1OCN3CN(COC4Cc5ccccc5CC43)C1C2 (configuration not stated)
- T/C (dose: 50.0 mg/kg/injection, schedule: Q01DX005 (ip), vehicle: saline): 114 % of control
- T/C (dose: 100.0 mg/kg/injection, schedule: Q01DX005 (ip), vehicle: saline): 111 % of control
- T/C (dose: 200.0 mg/kg/injection, schedule: Q01DX005 (ip), vehicle: saline): 112 % of control

Compound: Nc1cc(Cl)c(Cl)c(Cl)c1N
- T/C (dose: 12.5 mg/kg/injection, schedule: Q01DX009 (ip), vehicle: saline): 106 % of control
- T/C (dose: 25.0 mg/kg/injection, schedule: Q01DX009 (ip), vehicle: saline): 104 % of control
- T/C (dose: 50.0 mg/kg/injection, schedule: Q01DX009 (ip), vehicle: saline with Tween-80): 105 % of control
- T/C (dose: 50.0 mg/kg/injection, schedule: Q01DX009 (ip), vehicle: saline): 103 % of control
- T/C (dose: 100.0 mg/kg/injection, schedule: Q01DX009 (ip), vehicle: saline with Tween-80): 105 % of control
- T/C (dose: 100.0 mg/kg/injection, schedule: Q01DX009 (ip), vehicle: saline): 105 % of control and 93 % of control
- T/C (dose: 200.0 mg/kg/injection, schedule: Q01DX009 (ip), vehicle: saline with Tween-80): 102 % of control
- T/C (dose: 200.0 mg/kg/injection, schedule: Q01DX009 (ip), vehicle: saline): 123 % of control and 93 % of control and 94 % of control

Compound: COC(=O)c1c(-c2cc(OC)c(OC)cc2[N+](=O)[O-])cn(C)c1C
- T/C [1]: 88 % of control
- T/C [2]: 86 % of control

Compound: O=C(Nc1ccccc1)Sc1ccc(Cl)cc1
- T/C [3]: 115 % of control
- T/C [1]: 121 % of control
- T/C [2]: 115 % of control and 123 % of control
- T/C [4]: 124 % of control

Compound: COc1cc2c(cc1CN(C)C)[nH]c1c3ccc(Cl)cc3ncc21
- T/C (dose: 12.5 mg/kg/injection, schedule: Q01DX005 (ip), vehicle: saline with Tween-80): 104 % of control
- T/C [3]: 103 % of control
- T/C [1]: 109 % of control and 112 % of control

Compound: CCCCNC(=O)[C@@H]1C[C@H](OP(c2ccccc2)c2ccccc2)CN1P(c1ccccc1)c1ccccc1
- T/C [1]: 100 % of control
- T/C [2]: 100 % of control
- T/C [4]: 99 % of control

Compound: Cc1cc(=O)c2ccc3c(c2[nH]1)Oc1ccc2c(=O)cc(C)[nH]c2c1O3
- T/C [1]: 98 % of control
- T/C [2]: 101 % of control
- T/C [4]: 98 % of control

Compound: ICCN(CCI)c1ccc2c(ccc3ccccc32)c1
- T/C (dose: 100.0 mg/kg/injection, schedule: Q04DX003 (ip), vehicle: Klucel (hydroxypropylcellulose) (HPC)): 102 % of control
- T/C (dose: 200.0 mg/kg/injection, schedule: Q04DX003 (ip), vehicle: Klucel (hydroxypropylcellulose) (HPC)): 118 % of control
- T/C (dose: 400.0 mg/kg/injection, schedule: Q04DX003 (ip), vehicle: Klucel (hydroxypropylcellulose) (HPC)): 118 % of control
